Test results from US20050197350A1, “Novel quinoline, tetrahydroquinazoline, and pyrimidine derivatives and methods of treatment related to the use thereof” (TAISHO PHARMACEUTICAL CO., LTD., priority 2003, published 2005).
Where two headings read alike, the source gives them in different places.

Test system: MCH receptors
Experiment: MCH receptor activity class (method not given)
[1] = class by percent of control at 10^-7 M or IC50
[2] = MCH receptor, class by percent of control at 10^-7 M or IC50
[3] = class by percent of control at 10^−7 M or IC50
[4] = MCH receptor activity class 1-3 (percent of control at 10^-7 M or IC50)
[5] = class 1-3 by percent of control at 10^-7 M or IC50
[6] = activity class 1-3: percent of control at 10^-7 M or IC50

SMILES: COc1ccc(CNC[C@H]2CC[C@@H](Nc3nccc(N(C)C)n3)CC2)c(OC)c1C [compound 1288]
- class [1]: 1 (Class 1: The value of percent of control at 10^−7 M was less than 40% or the value of IC50 was less than 50 nM.)

SMILES: CN(C)c1nc(N[C@H]2CC[C@@H](NC(=S)Nc3cccc([N+](=O)[O-])c3)CC2)nc2c1CCCC2 [compound 1952]
- class [2]: 3 (Class 3 The value of percent of control at 10^−7 M was more than 60% or the value of IC50 was more than 200 nM.)

SMILES: CN(C)c1cc(N[C@H]2CC[C@@H](CNC(=O)c3cncc(Br)c3)CC2)nc2ccccc12 [compound 215]
- class [2]: 3 (Class 3 The value of percent of control at 10^−7 M was more than 60% or the value of IC50 was more than 200 nM.)

SMILES: Cc1ccc(C(=O)NC[C@H]2CC[C@@H](Nc3cc(N(C)C)c4ccccc4n3)CC2)c(F)c1F [compound 187]
- class [2]: 3 (Class 3 The value of percent of control at 10^−7 M was more than 60% or the value of IC50 was more than 200 nM.)

SMILES: Cc1cnc(N[C@H]2CC[C@@H](NC(=O)c3cccnc3Oc3cccc(F)c3)CC2)nc1N(C)C [compound 2886, N-(cis-4-{[4-(dimethylamino)-5-methylpyrimidin-2-yl]amino}cyclohexyl)-2-(3-fluorophenoxy)nicotinamide]
- class [3]: 1 (Class 1: The value of percent of control at 10^−7 M was less than 40% or the value of IC50 was less than 50 nM.)

SMILES: Cc1cc(C(=O)NC[C@H]2CC[C@@H](Nc3cc(N(C)C)c4ccccc4n3)CC2)cc(C)c1OCc1ccccc1 [compound 809]
- class [1]: 3 (Class 3 The value of percent of control at 10^−7 M was more than 60% or the value of IC50 was more than 200 nM.)

SMILES: Cc1cc(Cl)ccc1NC(=S)N[C@H]1CC[C@@H](Nc2nccc(N(C)C)n2)CC1 [compound 2331]
- class [4]: 3 (Class 3 The value of percent of control at 10^−7 M was more than 60% or the value of IC50 was more than 200 nM.)

SMILES: Cc1cnc(N[C@H]2CC[C@@H](NC(=O)C3(c4ccc(Cl)cc4)CC3)CC2)nc1N(C)C [compound 2870]
- class [3]: 1 (Class 1: The value of percent of control at 10^−7 M was less than 40% or the value of IC50 was less than 50 nM.)

SMILES: CCOc1cc(OCC)c(OCC)cc1CNC[C@H]1CC[C@@H](Nc2cc(N(C)C)c3ccccc3n2)CC1 [compound 1174]
- class [1]: 2 (Class 2: The value of percent of control at 10^−7 M was from 40% to 60% or the value of IC′50 was from 50 nM to 200 nM.)

SMILES: CN(C)c1nc(N[C@H]2CC[C@@H](NC(=O)CSc3ccccc3)CC2)nc2c1CCCC2 [compound 499]
- class [5]: 3 (Class 3 The value of percent of control at 10^−7 M was more than 60% or the value of IC50 was more than 200 nM.)

SMILES: Cc1cc(C(=O)N[C@H]2CC[C@@H](Nc3cc(N(C)C)c4ccccc4n3)CC2)ccc1Br [compound 57, 4-bromo-N-(cis-4-{[4-(dimethylamino)quinolin-2-yl]amino}cyclohexyl)-3-methylbenzamide]
- class [2]: 1 (Class 1: The value of percent of control at 10^−7 M was less than 40% or the value of IC50 was less than 50 nM.)

SMILES: CN(C)c1ccnc(N[C@H]2CC[C@@H](NC(=O)Nc3c(F)cc(Br)cc3Br)CC2)n1 [compound 2191, N-(2,4-dibromo-6-fluorophenyl)-N′-(cis-4-{[4-(dimethylamino)pyrimidin-2-yl]amino}cyclohexyl)urea]
- class [1]: 1 (Class 1: The value of percent of control at 10^−7 M was less than 40% or the value of IC50 was less than 50 nM.)

SMILES: CN(C)c1nc(N[C@H]2CC[C@@H](NC(=O)Nc3ccccc3I)CC2)nc2c1CCCC2 [compound 1678]
- class [6]: 3 (Class 3 The value of percent of control at 10^−7 M was more than 60% or the value of IC50 was more than 200 nM.)

SMILES: Cc1cc(N(C)C)nc(N[C@H]2CC[C@@H](CNC(=O)c3cccc(OC(F)(F)F)c3)CC2)n1 [compound 2759]
- class [3]: 3 (Class 3 The value of percent of control at 10^−7 M was more than 60% or the value of IC50 was more than 200 nM.)

SMILES: Cc1c(Cl)cccc1NC(=O)NC[C@H]1CC[C@@H](Nc2nccc(N(C)C)n2)CC1 [compound 2431, N-(3-chloro-2-methylphenyl)-N′-[(cis-4-{[4-(dimethylamino)pyrimidin-2-yl]amino}cyclohexyl)methyl]urea]
- class [4]: 1 (Class 1: The value of percent of control at 10^−7 M was less than 40% or the value of IC50 was less than 50 nM.)

SMILES: Cc1cccc(OCC(=O)N[C@H]2CC[C@@H](Nc3cc(C)c4ccccc4n3)CC2)c1 [Example 2556, 2-(3-methylphenoxy)-N-{cis-4-[(4-methylquinolin-2-yl)amino]cyclohexyl}acetamide]
- class: 1

SMILES: Cc1ccc2occ(CN[C@H]3CC[C@@H](Nc4nccc(N(C)C)n4)CC3)c(=O)c2c1 [compound 1227, 3-{[(cis-4-{[4-(dimethylamino)pyrimidin-2-yl]amino}-cylohexyl}-amino]methyl}-6-methyl-4H-chromen-4-one]
- class [1]: 3 (Class 3 The value of percent of control at 10^−7 M was more than 60% or the value of IC50 was more than 200 nM.)

SMILES: CN(C)c1nc(N[C@H]2CC[C@@H](NCc3coc4ccc(Cl)cc4c3=O)CC2)nc2c1CCCC2 [compound 1355]
- class [1]: 3 (Class 3 The value of percent of control at 10^−7 M was more than 60% or the value of IC50 was more than 200 nM.)

SMILES: Cc1cc(C(=O)N[C@H]2CC[C@@H](Nc3nccc(N(C)C)n3)CC2)n(C)n1 [compound 321]
- class [1]: 3 (Class 3 The value of percent of control at 10^−7 M was more than 60% or the value of IC50 was more than 200 nM.)

SMILES: Cc1cccc(Cl)c1NC(=O)NC[C@H]1CC[C@@H](Nc2nccc(N(C)C)n2)CC1 [compound 2420, N-(2-chloro-6-methylphenyl)-N′-[(cis-4-{[4-(dimethylamino)pyrimidin-2-yl]amino}cyclohexyl)methyl]urea]
- class [4]: 1 (Class 1: The value of percent of control at 10^−7 M was less than 40% or the value of IC50 was less than 50 nM.)

SMILES: COc1ccc(CSC2(CC(=O)N[C@H]3CC[C@@H](Nc4cc(N(C)C)c5ccccc5n4)CC3)CCCCC2)cc1 [compound 714]
- class [1]: 3 (Class 3 The value of percent of control at 10^−7 M was more than 60% or the value of IC50 was more than 200 nM.)

SMILES: CN(C)c1nc(NC2CCC(CNC(=O)OCc3ccccc3)CC2)nc2c1CCCC2 (stereo not shown) [compound 1611]
- class [6]: 3 (Class 3 The value of percent of control at 10^−7 M was more than 60% or the value of IC50 was more than 200 nM.)

SMILES: CN(C)c1cc(N[C@H]2CC[C@@H](CNC(=O)Oc3ccc(Br)cc3)CC2)nc2ccccc12 [compound 1563]
- class [6]: 3 (Class 3 The value of percent of control at 10^−7 M was more than 60% or the value of IC50 was more than 200 nM.)

SMILES: CN(C)c1ccnc(N[C@H]2CC[C@@H](NC(=O)NCc3ccc(Br)cc3)CC2)n1 [compound 2243]
- class [1]: 3 (Class 3 The value of percent of control at 10^−7 M was more than 60% or the value of IC50 was more than 200 nM.)

SMILES: CN(C)c1ccnc(N[C@H]2CC[C@@H](CNC(=O)c3c(F)cccc3C(F)(F)F)CC2)n1 [compound 448]
- class [5]: 3 (Class 3 The value of percent of control at 10^−7 M was more than 60% or the value of IC50 was more than 200 nM.)

SMILES: COc1ccc(C(=O)N[C@H]2CC[C@@H](Nc3ncc(C)c(N(C)C)n3)CC2)cc1 [compound 2913]
- class [3]: 3 (Class 3 The value of percent of control at 10^−7 M was more than 60% or the value of IC50 was more than 200 nM.)

SMILES: Cc1c(C(=O)N[C@H]2CC[C@@H](Nc3nccc(N(C)C)n3)CC2)cc(-c2ccccc2)n1CCCN1CCOCC1 [compound 863, N-(cis-4-{[4-(dimethylamino)pyrimidin-2-yl]amino}cyclohexyl)-2-methyl-1-(3-morpholin-4-ylpropyl)-5-phenyl-1H-pyrrole-3-carboxamide]
- class [1]: 2 (Class 2: The value of percent of control at 10^−7 M was from 40% to 60% or the value of IC′50 was from 50 nM to 200 nM.)

SMILES: COc1ccc(CNC[C@H]2CC[C@@H](Nc3nc4c(c(N(C)C)n3)CCCC4)CC2)c(OC)c1 [compound 1373]
- class [1]: 3 (Class 3 The value of percent of control at 10^−7 M was more than 60% or the value of IC50 was more than 200 nM.)

SMILES: C/C(=C\c1ccccc1)C(=O)NC[C@H]1CC[C@@H](Nc2cc(N(C)C)c3ccccc3n2)CC1 [compound 214]
- class [2]: 3 (Class 3 The value of percent of control at 10^−7 M was more than 60% or the value of IC50 was more than 200 nM.)

SMILES: CN(C)c1nc(N[C@H]2CC[C@@H](CNC(=O)/C=C/c3ccccc3Cl)CC2)nc2c1CCCC2 [compound 669]
- class [1]: 3 (Class 3 The value of percent of control at 10^−7 M was more than 60% or the value of IC50 was more than 200 nM.)

SMILES: CN(C)c1nc(N[C@H]2CC[C@@H](NC(=S)Nc3cccc(Br)c3)CC2)nc2c1CCCC2 [compound 1929]
- class [2]: 3 (Class 3 The value of percent of control at 10^−7 M was more than 60% or the value of IC50 was more than 200 nM.)

SMILES: CN(C)c1ccnc(N[C@H]2CC[C@@H](NC(=O)OCC3c4ccccc4-c4ccccc43)CC2)n1 [compound 1637]
- class [6]: 3 (Class 3 The value of percent of control at 10^−7 M was more than 60% or the value of IC50 was more than 200 nM.)

SMILES: CN(C)c1nc(N[C@H]2CC[C@@H](NC(=S)Nc3ccc(Cl)cc3Cl)CC2)nc2c1CCCC2 [compound 1739]
- class [1]: 3 (Class 3 The value of percent of control at 10^−7 M was more than 60% or the value of IC50 was more than 200 nM.)

SMILES: CCCCCC(=O)NC[C@H]1CC[C@@H](Nc2nccc(N(C)C)n2)CC1 [compound 385]
- class [1]: 3 (Class 3 The value of percent of control at 10^−7 M was more than 60% or the value of IC50 was more than 200 nM.)

SMILES: CN(C)c1cc(N[C@H]2CC[C@@H](NC(=O)c3cc([N+](=O)[O-])cn3C)CC2)nc2ccccc12 [compound 768, N-(cis-4-{[4-(dimethylamino)quinolin-2-yl]amino}cyclohexyl)-1-methyl-4-nitro-1H-pyrrole-2-carboxamide]
- class [1]: 1 (Class 1: The value of percent of control at 10^−7 M was less than 40% or the value of IC50 was less than 50 nM.)

SMILES: Cc1cccc(C)c1NC(=S)N[C@H]1CC[C@@H](Nc2cc(N(C)C)c3ccccc3n2)CC1 [compound 2171]
- class [1]: 3 (Class 3 The value of percent of control at 10^−7 M was more than 60% or the value of IC50 was more than 200 nM.)

SMILES: CN(C)c1ccnc(N[C@H]2CC[C@@H](NC(=O)Nc3ccccc3Br)CC2)n1 [compound 2213]
- class [1]: 3 (Class 3 The value of percent of control at 10^−7 M was more than 60% or the value of IC50 was more than 200 nM.)
